Test results from US20100249373A1, “SCREENING METHODS” (priority 2007, published 2010).

How the values were obtained:
[1] = test system: lightly pigmented human melanocytes; test: Quantitative assessment of melanogenesis (melanin content) after siRNA knockdown; type: cell-based; conditions: replicated x3, FIG. 27
Experimental: FIG. 27—Quantitative assessment of melanogenesis. A decrease in post-treatment melanin content is noted for duplex (492) in lightly pigmented human melanocytes (replicated ×3).
To each pellet of melanin+cell debris obtained in section 2), 0.5 ml of diethyl ether:ethanol (1:1 ratio) was added. Eppendorfs were vortexed vigorously for 30 seconds and centrifuged at 13000 g for 5 minutes. The ether layer was carefully removed to waste and a further 0.5 ml was added. The tubes were agitated and centrifuged as before. The liquid phase was again removed and the melanin pellets were allowed to air dry at room temperature for 10 minutes. Melanin pellets were solubilised by the addition of 200 μl of 1M NaOH+10% DMSO and incubation (with occasional agitation) at 50° C. for 1 hour. 80 μl aliquots of each sample were transferred to a 96-well microtitre plate in duplicate. OD^450 of each sample was determined and the melanin content of each fraction was calculated from a synthetic melanin standard curve, prepared as described above. In treatment comparisons, results were expressed as μg melanin per μg protein.
Primary human melanocytes isolated from lightly pigmented or darkly pigmented neonatal foreskin were obtained from Cascade Biologics. Melanocyte Growth Medium (MGM) refers to Medium 254 (Cascade Biologics) supplemented with HMGS (Cascade Biologics). […]

NCKX5 = test: Western blot of NCKX5 protein after siRNA knockdown in human melanocytes; type: cell-based; conditions: 5 days after siRNA mediated knockdown; anti C-terminus pAb; FIG. 28
Experimental: FIG. 28—Western blot analysis of NCK5 after knockdown. Using Western blotting we have investigated NCKX5 protein expression 5 days after siRNA mediated knockdown (all 5 siRNA duplexes and controls were tested). Western blot was also used to evaluate the expression and processing (maturation) of tyrosinase (tyr) in the same samples. SDS-PAGE (10% PA for NCKX5, 4-12% for tyr, 5 μg protein/lane). A) Western blot for NCKX5: Detection via rabbit anti-NCKX5 pAb (anti C-terminus peptide). B) Western blot for tyr, via goat pAb (Santa Cruz). 1=No treatment, 2=scrambled siRNA control, 3-7=siRNA's 185, 260, 301, 492, 1110. […] These bands are absent in the samples where SLC24A5-specific duplexes were used (lanes 3-7). It is possible that the doublet represents the presence of alternate SLC24A5 splice variants.
Cultured Cells (trypsinised off of 6-well culture plates) were lysed on ice for 20 minutes in 1.5 ml eppendorfs using 100 μl per sample of 1% triton X-100 in dPBS containing protease inhibitor cocktail (Sigma-Aldrich, Poole, UK). Cell extracts were centrifuged (10 minutes at 13000 g) to separate melanin and cell debris from the solubilised protein. The protein concentration of each supernatant fraction was determined by BCA assay as described in A).
20 μg protein (as determined by BCA assay) was reconstituted into 20 μl of 1×LDS loading buffer (Invitrogen Ltd, Paisley, UK) containing 1× reducing agent (Invitrogen Ltd, Paisley, UK), heated to 40° C. for 30 minutes and loaded onto 10% Novex bis-tris acrylamide gels with 1×MOPS running buffer (Invitrogen Ltd, Paisley, UK). Kaleidoscope molecular weight markers (Bio-Rad Laboratories Ltd, Hemel Hempstead, UK) were run alongside samples for size determinations. Protein was transferred onto PVDF membrane by electrophoresis transfer, using a Bio-Rad mini-cell II trans-blotter and 1×Tris-Glycine transfer buffer (Invitrogen Ltd, Paisley, UK)+15% v/v methanol (100V for 1 hour).
Membranes containing transferred protein were “blocked” using 2% w/v skimmed milk protein (SMP) in PBS+0.05% tween20 (PBST) for 1 hour with gentle agitation. Peptide affinity purified rabbit polyclonal antibody (raised using a peptide equivalent to the C-terminus of NCKX5—GNNKIRGCGG) was diluted to 0.5 μg/ml using 2% SMP in PBST. The diluted antibody was incubated with the membrane for 2 hours at room temperature. The membrane was then rinsed with PBST (4×5 minutes washes). Peroxidase conjugated anti-rabbit IgG (Jackson ImmunoResearch Laboratories Inc. PA, USA) was diluted 1/4000 using 2% SMP in PBST and was incubated with the membranes for 1 hour. Finally, membranes were washed using 6×5 minute rinses with PBST. […]

Substance | post-treatment melanin content [1] | NCKX5 Western blot bands of approx. 42 and 44 kDa (NCKX5)
492 (sense GCACCATCCTTGGATCTGCAATTTA; antisense CGTGGTAGGAACCTAGACGTTAAAT; chemistry not given here; one strand is listed 3' to 5') [compound 492] | decrease | absent
185 (sense AGGGCCACAGGAAATAGCACCCAAT; antisense TCCCGGTGTCCTTTATCGTGGGTTA; chemistry not given here; one strand is listed 3' to 5') [compound 185] |  | absent
301 (sense CGTTTACATGTTCATGGCCATATCT; antisense GCAAATGTACAAGTACCGGTATAGA; chemistry not given here; one strand is listed 3' to 5') [compound 301] |  | absent
260 (sense GAGCGCAGAGATGGAGGCATCATAA; antisense CTCGCGTCTCTACCTCCGTAGTATT; chemistry not given here; one strand is listed 3' to 5') [compound 260] |  | absent
